Experimental data: patent publication US20090118225A1, “1-Methyl Nicotinamide and Derivatives for Treatment of Gastric Injury” (Cortria Corporation, priority 2007, published 2009)

Experiments:
gastric acid output = test: Gastric acid output in rats having chronic gastric fistula (GF); format: in vivo
Protocol: The following experiments were designed to compare the effects of pretreatment with vehicle and 1-MNA or NA on stress-induced gastric lesions and the accompanying changes in gastric blood flow (GBF) and gastric tissue activities of MDA and SOD and plasma pro-inflammatory cytokine IL-1β and TNF-α levels. These sets of experiments were based on the observation that 1-MNA was able to reduce the gastric output in rats having chronic gastric fistula (GF). Rats with chronic GF were administered with 1-MNA, NA, or a vehicle control.

[1] = test system: WRS-induced gastric lesions; test: Water immersion and restraint stress (WRS)-induced gastric lesion model; format: in vivo, Male Wistar rats; conditions: for effect on the protection by 1-MNA with respect to gastric lesions / effect on the protective property of 1-MNA as measured by mean lesion number and plasma levels of IL-1β and TNFα: COX inhibitor pretreatment plus 1-MNA; for effect on gastroprotection and the accompanying rise in the GBF induced by 1-MNA: summary of inhibitor experiments; for lesion numbers after COX inhibitor pretreatment before 1-MNA and WRS: indomethacin 5 mg/kg i.p., SC-560 5 mg/kg i.g. or rofecoxib 10 mg/kg i.g., versus absence of inhibitor
Protocol: (§1) Male Wistar rats, weighing 180-220 grams were fasted for 24 hours before subjecting to experimentation were employed in all studies. The animals were divided into groups for the following types of induced gastric lesions: ethanol-; aspirin (acetylsalicylic acid; ASA)-; stress-; and ischemia-reperfusion (I/R)-induced gastric lesions. In the first group, gastric lesions were produced by intragastric (i.g.) application of ethanol (75%), in the second group by i.g. application of acidified ASA (125 mg/kg), in the third group by animal exposure to 3.5 hours of water immersion (and restraint stress (WRS), in the fourth group by ischemia (by clamping celiac artery for 30 minutes followed by release of the clamp (reperfusion for 3 hours) (I/R).
(§2) The following experiments were designed to assess the therapeutic effect of 1-MNA on induced gastric lesions.
(§3) To assess gastric blood flow (GBF) laser Doppler flowmeter (Laserflo, model BPM 403A, Blood Perfusion Monitor, Vasamedics, St. Paul, Minn., USA) was used. The animals were anaesthetized with Vetbutal 50 mg/kg (Biowet, Pu^3awy, Poland), then the abdomen was opened and the stomach was exposed to assess the GBF. Blood flow was measured on anterior and posterior wall of stomach. The mean values of these measurements were calculated and expressed as percent change from value recorded in the intact mucosa.
(§4) To establish the number and area of gastric lesions, computerized planimetry (Morphomat, Carl Zeiss, Berlin, Germany) was used. Results are expressed as mm.
(§5) A venous blood sample was withdrawn from the vena cava into EDTA-containing vials in order to determine the plasma level of interleukin-1 beta (IL-1β) and tumor necrosis factor alpha (TNFα) by ELISA technique (BioSource International, Camarillo, Calif., USA).

[2] = test system: diabetes and stress-induced gastric damage; test: Combined diabetes and stress-induced gastric damage model; format: in vivo, rats
Excerpt: as §5
The next set of experiments was designed to assess the therapeutic effects of 1-MNA in a combined diabetic and stress-induced gastric damage model.
Insulin-dependent diabetes exerts various influences on gastric functions, such as acid secretion and gastric emptying. It has observed that aggravation of gastric mucosal ulcerogenic responses occurs in diabetic rats. Furthermore, deleterious influence of diabetes on the healing of gastric mucosal lesions has been observed in diabetic rats.

[3] = test system: ethanol-induced gastric lesions; test: Ethanol-induced gastric lesion model; format: in vivo, Male Wistar rats
Protocol: as §1, §2, §3, §4

[4] = test system: ASA-induced gastric lesions; test: Acidified ASA-induced gastric lesion model; format: in vivo, Male Wistar rats
Protocol: as §1, §2, §3, §4
For lipid peroxydation in investigated groups, the determination of the levels of malondialdehyde (MDA) and 4 hydroxynonenal (4-HNE) was carried out and their levels were used as indicators of lipid peroxidation. The procedure of MDA and 4-HNE determination was following: 600 mg of gastric mucosa was excised. Then […] 0.5 M BHT (butylated hydroxytoluene) was added in order to prevent sample oxidation. This sample was subsequently homogenized in 20 mM Tris for 15 sec. in pH 7.4. The homogenate was centrifuged (3,000 g at 4° C. for 10 minutes). Obtained clear supernatant was stored at −80° C. prior to testing. The colorimetric assay for lipid peroxidation (Bioxytech LPO-586, Oxis, Portland, USA) was used to determine the MDA and 4-HNE tissue concentration. This assay is based on the reaction of a chromogenic reagent N-methyl-2-phenylindole with MDA and 4-HNE at 45° C. This reaction yields a stable chromophore with maximal absorbance at 586 nm. This absorbance was measured by spectrophotometer Marcel s300, Warsaw, Poland. Results were expressed as nanomole per gram of tissue (nmol/g).
To determine activity of superoxide dismutase (SOD), a sample of gastric mucosa was taken, as described above. The calorimetric assay for assessment of SOD activity (Bioxytech, SOD-525, Oxis, Portland, USA) was used. This method is based on the SOD-mediated increase in the rate of autooxidation of tetrahydrobenzofluorene in aqueous alkaline solution to yield a chromophore with maximum absorbance at 525 nm. This absorbance was measured by spectrophotometer Marcel s300, Warsaw, Poland. Outcomes were expressed as units per gram of tissue (U/g).
The next set of experiments were designed to measure myeloperoxidase (MPO), malondialdehyde (MDA) and 4-hydroxynonenal (4-HNE), and superoxide dismutase (SOD) activities in rat stomach exposed to acidified ASA as indicators of the prognosis of gastric mucosa injury. To evaluate the inflammatory changes, myeloperoxidase (MPO) activity in the gastric mucosa was measured. MPO activity was measured by enzyme assay. MDA and 4-HNE in tissue are accepted as major products of lipid peroxidation and thus are considered as indicators of mucosa injury by reactive oxygen species (ROS). Organisms have several enzymatic systems that scavenge ROS and prevent their destructive action. The major antioxidative enzyme is superoxide dismutase (SOD).

[5] = test system: I/R-induced gastric lesions; test: Ischemia-reperfusion (I/R)-induced gastric lesion model; format: in vivo, Male Wistar rats
Protocol: as §1, §2, §3, §4

acetic acid ulcer = test: Acetic acid ulcer area and GBF in rats with and without rofecoxib; format: in vivo
Excerpt: The following experiments were designed to assess the effects of 1-MNA on acetic acid ulcer area and GBF in rats administered with and without a selective COX-2 inhibitor (e.g., rofecoxib).

[6] = WRS 3.5 hours, pretreatment 30 minutes prior
[7] = ethanol (75%) i.g., pretreatment
[8] = acidified ASA 125 mg/kg i.g., pretreatment
[9] = comparison of protective properties
[10] = ischemia 30 minutes, reperfusion 3 hours, pretreatment
[11] = WRS, administration of 16,16-dimethyl PGE2

With `C[n+]1cccc(C(N)=O)c1` [1-MNA, 1-methyl nicotinamide] the “dose dependence of the ability to inhibit gastric output” value (gastric acid output) was “increased with increasing dosage”, the “suppression of gastric acid output compared with NA” value (gastric acid output; 1-MNA versus NA) was “more effectively than NA” and the gastric acid output (gastric acid output; 1-MNA, NA or vehicle control) was “decrease the gastric acid output”. The gastric blood flow [1, 6] was “increased gastric blood flow”, the lesion number [1, 6] was “decreased lesion number” and the “plasma level of IL-1β” value ([1]; WRS model) was “decrease the plasma levels”. The “plasma level of TNFα” value ([1]; WRS model) was “decrease the plasma levels”, the “reduction of lesion number compared with NA” value (from here on “reduction of lesion number”) ([1]; WRS, 1-MNA versus NA) was “more effectively than NA” and the mean lesion number [2] was “reduce mean lesion number”. The “plasma level of IL-1β” value [2] was “decrease”, the “plasma level of TNFα” value [2] was “decrease” and the gastric blood flow [3, 7] was “increased gastric blood flow”. For the same compound, the lesion number [3, 7] was “decreased lesion number”, the “increase of gastric blood flow compared with NA” value ([3]; ethanol model, 1-MNA versus NA) was “more effectively than NA” and the “reduction of lesion number” value ([3]; ethanol model, 1-MNA versus NA) was “more effectively than NA”. The “mean lesion number in animals pretreated with either indomethacin, SC-560, or rofecoxib” value ([3]; ethanol model, presence of 1-MNA) was “significantly reduced”, the “increase of gastric blood flow compared with NA” value ([4]; 1-MNA versus NA) was “more effectively than NA” and the “reduction of lesion number” value ([4]; 1-MNA versus NA) was “more effectively than NA”. The “levels of 4-HNE in gastric mucosa” value ([4]; ASA-induced lesions) was “decreasing”, the “levels of MDA in gastric mucosa” value ([4]; ASA-induced lesions) was “decreasing” and the “levels of MPO in gastric mucosa” value ([4]; ASA-induced lesions) was “lowering the levels of MPO”. The “levels of SOD in gastric mucosa” value ([4]; ASA-induced lesions) was “increasing the levels of SOD”, the gastric blood flow [4, 8] was “increased gastric blood flow” and the lesion number [4, 8] was “decreased lesion number”. The “increasing GBF, compared with ranitidine, NO-ASA and SIN-1” value [4, 9] was “equally effective”, the “increasing luminal NO, compared with ranitidine, NO-ASA and SIN-1” value [4, 9] was “equally effective” and the “reducing mean lesion number, compared with ranitidine, NO-ASA and SIN-1” value [4, 9] was “equally effective”. For the same compound, the gastric blood flow [5, 10] was “increased gastric blood flow”, the lesion number [5, 10] was “decreased lesion number” and the “GBF in the ulcer area” value (acetic acid ulcer; rats given rofecoxib) was “increase the GBF in the ulcer area”. The ulcer area (acetic acid ulcer; rats given rofecoxib) was “reduce the ulcer area in rats given rofecoxib”, the “GBF in the ulcer area” value (acetic acid ulcer; without rofecoxib) was “increase the GBF in the ulcer area” and the ulcer area (acetic acid ulcer; without rofecoxib) was “reduce the ulcer area”.

With `CCCCC(C)(C)[C@H](O)/C=C/[C@H]1[C@H](O)CC(=O)[C@@H]1C/C=C\CCCC(=O)O` [16,16-dimethyl PGE2] the “gastric damage induced by either indomethacin, SC-560, or rofecoxib” value [1, 11] was “successful in preventing the gastric damage” and the mean lesion number [1, 11] was “sufficient to decrease the mean lesion number”.

In the case of `N=C(NCCC[C@H](N)C(=O)O)N[N+](=O)[O-]` [L-NNA, NG-nitro-L-arginine, reference compound], the “effect on the therapeutic effects of 1-MNA on gastric lesions” value ([5]; L-NNA 20 mg/kg i.p.) is reported as “reverse the therapeutic effects of 1-MNA”.

For `COc1ccc(-n2nc(C(F)(F)F)cc2-c2ccc(Cl)cc2)cc1` [SC-560], the “effect on the protection by 1-MNA with respect to gastric lesions” value (“effect on the protection by 1-MNA” for short) ([1]; WRS) was “significantly inhibited the protection by 1-MNA”, the “effect on the protective property of 1-MNA as measured by mean lesion number and plasma levels of IL-1β and TNFα” value (from here on “effect … of IL-1β and TNFα”) ([1]; WRS) was “significantly inhibited the protective property of 1-MNA” and the “effect on gastroprotection and the accompanying rise in the GBF induced by 1-MNA” value (shortened to “effect … in the GBF induced by 1-MNA”) [1] was “significantly attenuated”.

With `COc1cc(CNC(=O)CCCC/C=C/C(C)C)ccc1O` [capsaicin] the “effect of capsaicin denervation on the protection induced by 1-MNA with respect to gastric lesions” value ([1]; WRS, capsaicin 125 mg/kg s.c.) was “significantly inhibit the protection induced by 1-MNA” and the “effect … in the GBF induced by 1-MNA” value [1] was “significantly attenuated”.

`Oc1cc2c(cc1O)CN(C(=S)NCCc1ccc(Cl)cc1)CCC2` [capsazepine] was tested, and the “effect on the protective property of 1-MNA as measured by mean lesion number and gastric blood flow” value ([1]; WRS, capsazepine 5 mg/kg s.c.) was “reduced the protective property of 1-MNA” and the “effect … in the GBF induced by 1-MNA” value [1] was “significantly attenuated”.

With `COc1ccc2c(c1)c(CC(=O)O)c(C)n2C(=O)c1ccc(Cl)cc1` [indomethacin] the “effect on the protection by 1-MNA” value ([1]; WRS) was “significantly inhibited the protection by 1-MNA”, the “effect … of IL-1β and TNFα” value ([1]; WRS) was “significantly inhibited the protective property of 1-MNA” and the “lesion numbers after COX inhibitor pretreatment before 1-MNA and WRS” value [1] was “increase of lesion numbers”. The “effect … in the GBF induced by 1-MNA” value [1] was “significantly attenuated”.

For `CS(=O)(=O)c1ccc(C2=C(c3ccccc3)C(=O)OC2)cc1` [rofecoxib], the “effect on the protection by 1-MNA” value ([1]; WRS) was “significantly inhibited the protection by 1-MNA”, the “effect … of IL-1β and TNFα” value ([1]; WRS) was “significantly inhibited the protective property of 1-MNA” and the “lesion numbers after COX inhibitor pretreatment before 1-MNA and WRS” value [1] was “increase of lesion numbers”. The “effect … in the GBF induced by 1-MNA” value [1] was “significantly attenuated” and the “number of lesions after COX inhibitor pretreatment in the absence of 1-MNA” value ([3]; indomethacin 5 mg/kg i.p., SC-560 5 mg/kg i.g. or rofecoxib 10 mg/kg i.g., versus no inhibitor) was “increased the number of lesions”.

For calcitonin gene related peptide [CGRP], the “effect on the deleterious effects of capsazepine” value ([1]; WRS, addition of CGRP) was “counter the deleterious effects of casazepine” and the “effect on the deleterious effects of capsaicin-induced denervation” value ([1]; WRS, addition of CGRP to 1-MNA in denervated rats) was “counteracted the deleterious effects of capsaicin-induced denervation”.
